From publication PMC9312958, “A Novel and Selective Dopamine Transporter Inhibitor, (S)-MK-26, Promotes Hippocampal Synaptic Plasticity and Restores Effort-Related Motivational Dysfunctions” (Biomolecules, 2022)

Key:
hNET = target: T1, hNET (Homo sapiens, UniProt P23975); test: hNET radioligand binding assay (CHO cells, [3H]nisoxetine)
T1 construct: expressed in transfected cells
Description: (§1) Binding affinity to the hDAT, hNET and hSERT expressed in CHO cells was evaluated in in vitro radioligand binding assays. Binding assays were conducted according to the standard and validated protocols under conditions defined by the contractor (Eurofins Cerep SA, Celle-’Evescault, France; study number 100054410). Antagonist radioligand assays were conducted for the human norepinephrine, the human dopamine, and the serotonin transporters (using CHO cells), using [^3H]nisoxetine (1 nM), [^3H]BTCP (4 nM), and [^3H]imipramine (2 nM) as ligands and desipramine (1 µM), BTCP (10 µM), and imipramine (10 µM) as non-specific agents, respectively (with scintillation counting as detection method).

hSERT = target: T2, hSERT (Homo sapiens, UniProt P31645); test: hSERT radioligand binding assay (CHO cells, [3H]imipramine)
T2 construct: expressed in transfected cells
T2 sequence (P31645 whole entry): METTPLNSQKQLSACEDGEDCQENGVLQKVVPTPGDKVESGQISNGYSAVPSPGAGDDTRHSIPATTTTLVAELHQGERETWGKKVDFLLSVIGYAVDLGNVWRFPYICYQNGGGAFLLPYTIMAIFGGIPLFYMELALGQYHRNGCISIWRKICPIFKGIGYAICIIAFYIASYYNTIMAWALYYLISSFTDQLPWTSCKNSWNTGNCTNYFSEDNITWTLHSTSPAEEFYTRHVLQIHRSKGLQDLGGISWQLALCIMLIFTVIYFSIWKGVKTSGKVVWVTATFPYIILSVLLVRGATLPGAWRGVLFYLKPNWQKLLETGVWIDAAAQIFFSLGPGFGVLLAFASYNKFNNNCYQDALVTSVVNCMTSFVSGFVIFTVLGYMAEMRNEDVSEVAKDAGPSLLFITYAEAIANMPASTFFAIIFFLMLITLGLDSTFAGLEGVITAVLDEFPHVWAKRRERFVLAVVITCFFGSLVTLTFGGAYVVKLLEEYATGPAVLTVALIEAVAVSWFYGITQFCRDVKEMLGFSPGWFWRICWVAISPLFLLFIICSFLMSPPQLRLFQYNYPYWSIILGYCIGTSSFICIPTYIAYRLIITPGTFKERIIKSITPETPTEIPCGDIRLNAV
Description: as §1

[1] = tested on: CA3-CA1 hippocampal synapses; test: Ex vivo hippocampal slice electrophysiology after i.p. treatment; assay type: in vivo, rat; settings: 10 mg/kg i.p.
Description: All electrophysiological experiments were conducted post mortem. Hippocampal slices (n = 12 animals/group) were prepared 1 h after the pharmacological treatments (animal experiments conducted under BMBWF-66.009/235/V/3b/2018 regulations). Animals underwent a brief sedative exposure to low CO2 inhalation and were immediately afterwards euthanized using a sharp-blade guillotining (DCAP-M, World Precision Instruments, Inc., Sarasota, FL, USA). The brains were removed and transferred to an ice-cold artificial Cerebrospinal Fluid (aCSF) solution containing (in mM): 125 NaCl, 2.5 KCl, 20 NaHCO3, 2.5 CaCl2, 1 MgCl2, 25 D-glucose, 1 NaH2PO4 (pH 7.4). Hippocampi were extracted and cut transversally with a tissue chopper (McIlwain TC752, Campden Instruments LTD., Loughborough, England) to obtain 400 µm-thick slices. Before electrophysiological assays, the slices rested for at least 1 h in a submerged recovery chamber (filled with aCSF) placed in a water bath with the temperature set at 30 °C. […]
Slice recordings were carried out in a submerged chamber receiving 3–4 mL/min of carbogenated aCSF (30 ± 2 °C). Field excitatory postsynaptic potentials (fEPSPs) were recorded using glass pipettes made of pulled capillary-glass obtained from Harvard Apparatus (Harvard Apparatus, GmbH; Hugo Sachs Elektronik, Germany). Evoked fEPSPs were recorded at the CA1 stratum-radiatum layer after electrically stimulating the collateral projections of Schaffer coming from the CA3 region as previously reported. […] Basal synaptic transmission was assessed by the generation of input/output (I/O) curves, resulting from the plotting of the field slope values (output; normalized to maximum) against the presented electrical stimulus intensity (input voltage). […] LTP was determined from the temporal progression of the fEPSP slope values (decaying phase) after LTP induction, normalized to the averaged slope values obtained before LTP-induction (base line values). The data for LTP from all slices were averaged for each animal (2–5 slices per rat were measured and averaged to yield one single value per animal). […]

T1 sequence (P23975 whole entry): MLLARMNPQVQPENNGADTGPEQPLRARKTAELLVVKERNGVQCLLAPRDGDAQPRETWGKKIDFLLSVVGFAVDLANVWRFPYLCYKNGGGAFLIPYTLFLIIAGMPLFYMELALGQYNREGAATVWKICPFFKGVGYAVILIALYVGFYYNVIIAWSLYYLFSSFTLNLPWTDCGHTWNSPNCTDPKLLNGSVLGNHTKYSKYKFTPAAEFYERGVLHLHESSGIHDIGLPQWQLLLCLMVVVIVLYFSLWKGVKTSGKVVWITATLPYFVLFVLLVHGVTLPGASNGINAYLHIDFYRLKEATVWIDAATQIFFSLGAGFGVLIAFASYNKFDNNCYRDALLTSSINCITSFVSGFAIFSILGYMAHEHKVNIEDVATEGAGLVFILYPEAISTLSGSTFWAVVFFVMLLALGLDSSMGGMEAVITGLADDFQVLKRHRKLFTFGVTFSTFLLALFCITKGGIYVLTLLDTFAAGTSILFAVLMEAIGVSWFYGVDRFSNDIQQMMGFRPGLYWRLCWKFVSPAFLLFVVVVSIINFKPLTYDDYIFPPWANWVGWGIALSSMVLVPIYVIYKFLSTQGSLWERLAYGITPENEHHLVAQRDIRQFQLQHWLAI

## [O-][S@@+](Cc1cncs1)C(c1cccc(Cl)c1)c1cccc(Cl)c1 [(S)-MK-26, (S)-5-(((B(3-chlorophenyl)methyl)sulphinyl)methyl)thiazole]
hNET
  binding to NET: trifling bindings
hSERT
  binding to SERT: trifling bindings
[1]; old rats (~20 months), slices 1 h after injection
  basal synaptic transmission (I/O curves, fEPSP slopes): no effects
[1]; old rats
  Post-Tetanic Potentiation (1 min after LTP induction): comparable to those from the Koliphor/control group
[1]; old rats, p = 0.0133
  LTP responses (25 min after LTP induction): significant enhancement in their LTP responses
